From publication PMC5520492, “Inhibition of DNA2 nuclease as a therapeutic strategy targeting replication stress in cancer cells” (Oncogenesis, 2017) come the findings set out here.

In assay [1] the test system is U2OS cells. Nature of the assay: Cell-based viability/proliferation screen, DAPI staining and automated microscopy. Further details: species or system human. The conditions noted are these: for IC50: Homo sapiens, 10 pM to 10 μM, DAPI staining, read-out: IC50 from Screening Cell Based. The protocol:
The biological effectiveness of the 39 compounds selected by re-screening was determined by measuring their half maximal inhibitory concentration (IC50) biochemically and in a cell-based system using the 384-well platform (Supplementary Table S2). […] We conducted the viability assay in duplicate on three separate occasions using a concentration range of 10 pM to 10 μM for each compound. Cell proliferation was determined using 4,6-diamidino-2-phenylindole staining and microscopy.
In addition, a second dark quencher ZEN (N,N-diethyl-4-(4-nitronaphthalen-1-ylazo)-phenylamine, absorption max.=532 nm) is placed between 9th and 10th base (Figure 2a). Initial screen, it was performed with yDna2.[22] Then, the top candidate compounds were tested on hDNA2. Identical reaction conditions were used for assaying the nuclease activity of yDna2 and hDNA2. […] The reaction buffer was 20 mM HEPES/NaOH, pH 7.5, 60 mM KCl, 1 mM DTT, 100 μg/ml bovine serum albumin and 0.05% Triton X-100. The nuclease assay was initiated by adding MgCl2 (3 mM final concentration). T5 nuclease was assayed in the buffer (50 mM potassium acetate, pH 7.9, 20 mM Tris-acetate, 10 mM magnesium acetate and 1 mM DTT) provided by the vendor (NEB, Ipswich, MA, USA). The concentration of the fluorogenic substrate was 0.1 μM. The optimal amount of yDna2, hDNA2 and T5 nuclease was determined by utilizing the Kaleidagraph software (Reading, PA, USA) to fit the data according to Michaelis Menton Kinetics (V=V0+Vmax*x/(Km+x)). […] All the compounds were dissolved in DMSO and DMSO alone was used as control; the final concentration of DMSO was at 3.33% for protein-based assay and 0.1% for cell-based assay. The Z’ value was calculated as previously described.[50] Cell proliferation was determined using 4,6-diamidino-2-phenylindole staining followed by high-throughput microscopy in a 384-well plate setup. In brief, cells were fixed with formaldehyde, washed and stained with 4,6-diamidino-2-phenylindole and the number of nuclei in each well counted by automated microscopy. The data were analyzed as described.[51]

Assay [2] deals with T1, hDNA2 (Homo sapiens, UniProt P51530).
T1 construct: made in house
T1 sequence (P51530 1-1060): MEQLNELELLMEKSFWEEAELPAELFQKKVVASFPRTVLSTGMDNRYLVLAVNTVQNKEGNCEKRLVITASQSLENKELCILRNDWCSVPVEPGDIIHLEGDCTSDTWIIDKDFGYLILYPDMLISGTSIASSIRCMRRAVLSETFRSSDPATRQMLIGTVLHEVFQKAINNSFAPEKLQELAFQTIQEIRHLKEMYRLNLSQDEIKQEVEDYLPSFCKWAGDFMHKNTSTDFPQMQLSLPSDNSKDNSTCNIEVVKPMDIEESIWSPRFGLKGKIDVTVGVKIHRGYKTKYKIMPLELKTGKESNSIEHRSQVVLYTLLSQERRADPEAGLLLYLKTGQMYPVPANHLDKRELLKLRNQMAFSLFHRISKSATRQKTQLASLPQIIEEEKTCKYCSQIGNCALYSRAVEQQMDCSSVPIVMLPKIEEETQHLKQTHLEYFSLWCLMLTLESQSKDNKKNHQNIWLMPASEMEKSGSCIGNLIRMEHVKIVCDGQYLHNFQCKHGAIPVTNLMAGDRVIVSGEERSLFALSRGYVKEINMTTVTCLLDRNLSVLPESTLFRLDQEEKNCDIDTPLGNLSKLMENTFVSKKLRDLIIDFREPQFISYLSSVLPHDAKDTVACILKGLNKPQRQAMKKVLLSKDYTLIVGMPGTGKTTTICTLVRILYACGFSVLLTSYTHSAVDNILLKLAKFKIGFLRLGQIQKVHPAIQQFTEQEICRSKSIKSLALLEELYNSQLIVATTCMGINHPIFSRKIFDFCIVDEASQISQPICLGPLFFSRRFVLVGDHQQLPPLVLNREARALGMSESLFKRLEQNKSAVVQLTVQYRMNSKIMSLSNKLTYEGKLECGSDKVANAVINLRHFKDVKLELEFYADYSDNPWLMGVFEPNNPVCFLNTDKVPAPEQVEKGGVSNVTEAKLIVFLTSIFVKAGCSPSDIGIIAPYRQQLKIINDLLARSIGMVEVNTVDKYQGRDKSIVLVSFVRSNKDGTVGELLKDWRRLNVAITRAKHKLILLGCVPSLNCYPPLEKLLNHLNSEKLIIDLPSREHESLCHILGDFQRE
As to the kind of experiment: ATPase activity of hDNA2 (TLC). Type of assay: biochemical. As to conditions: inhibitor 10 µM, 100 nM hDNA2. As to the method:
Figure S2. […] (a) Analysis of 5’ flap processing by hDNA2 in presence of the compounds at the indicated concentration. DNA2 (2.5 nM) was incubated with the Y DNA substrate (5 nM ends) and the indicated concentration of inhibitor. (b) Plots showing quantitation of the experiments shown in a. Plotted are the average data from three independent experiments with the error bars representing one standard deviation. (c) Analysis of dsDNA unwinding by BLM. BLM (4, 8 and 16 nM), RPA (100 nM) and internally radiolabelled dsDNA (0.5 nM ends) was incubated for 20 min at 37^ºC in presence of either DMSO or NSC-105808 (10 µM) and the products were resolved on a 1% agarose gel. (d) Plots showing quantitation of the experiments shown in c. Plotted are the average data from three independent experiments with the error bars representing one standard deviation. (e) Analysis of the degradation of a 2 kb internally labeled dsDNA (0.5 nM ends) by EXO1 (5 nM) in presence of NSC-105808 (10 µM). (f) Plot showing quantitation of the experiment in e. […] 100 nM hDNA2 was incubated with γ^32P-ATP in the presence of oligonucleotide ssDNA (200 nM) for 20 minutes at 37^ºC in presence of either DMSO or inhibitor (10 µM) and the products were resolved on a TLC plate. (h) Analysis of hDNA2 binding to DNA. […]

“Also recorded” adds a separate entry of the source.

By IC50 is commonly meant the midpoint of a concentration-inhibition curve. Consider `NC1=C(Br)C(=O)c2ncccc2C1=O` [NSC-105808, 6-amino-7-bromoquinoline-5,8-dione], for which the concentration for half-maximal inhibition (IC50) in assay [1] was 2.7 µM. For the same compound, the “Effect of longer exposure on cells” value in assay [1] (exposure >48 h) is recorded as “causes cell death”. The “Effect on ATPase activity of DNA2” value in assay [2] is recorded as “do not affect; also recorded: no effect”.
Consider `O=C1C(=O)c2cc([N+](=O)[O-])ccc2-c2ccccc21` [NSC-5195242, 2-nitrophenanthrene-9,10-dione], for which the half-maximal inhibitory concentration (IC50) in assay [1] is 1 µM. In assay [2], the “Effect on ATPase activity of DNA2” value is reported as “do not affect”.
